The test system of data set [1] is 2008 cells. Description: Uptake of 14C-Dp44mT, 2008 cells. Format: cell-based. To be noted: NH4Cl, MA or CLQ pre-incubation. Here is the method: (§1) For the uptake assay, each 35 mm culture dish containing 5×10^5 cells was incubated with ^14C-doxorubicin, ^3H-vinblastine or ^14C-Dp44mT (all at 1 μCi) for 30 min/37° C. Cells were then washed on ice three times with ice-cold PBS and collected for analysis. Drug uptake was calculated as the number of drug molecules/cell. […] For studies using lysosomotropic agents, cells were pre-incubated with NH4Cl (5 mM), CLQ (100 μM) or MA (100 μM) for 30 min/37° C. prior to ^14C-Dp44mT uptake. […] For efflux assays, the same labeling procedure was conducted as in the uptake assay. […] After this procedure, the overlying media was removed using a Pasteur pipette and then placed in a counting vial. The cells were removed from the plate in 1 mL of PBS and then dispensed into a separate counting vial. The radiolabeled-drug efflux was calculated as a percentage of the total drug uptake by the cells found at zero time.

Data set [2] relates to 2008/P200A cells. Description: Uptake of 14C-Dp44mT, 2008/P200A cells. To be noted: 2008/P200 cells, NH4Cl, MA or CLQ pre-incubation. Format: cell-based. On the procedure:
as §1

Data set [3] has as its system Pgp over-expressing KBV1 cells. Description: Efflux of 14C-Dp44mT, KBV1 cells. It is filed as cell-based, Human. Here is the method: as §1
The test system of data set [4] is Pgp expressing 2008/P200A cells. Description: MTT proliferation assay, 2008/P200A cells. Format: cell-based. Here is the method: (§2) The 2008 ovarian carcinoma cell line and the PAC-resistant 2008/P200A cell line (grown in 200 ng/mL of PAC) were kindly provided by Dr. John Allen (Centenary Institute, Sydney, Australia). Cells were grown in Dulbecco's modified Eagle's medium (DMEM; Life Technologies) with 10% (v/v) fetal calf serum (Sigma-Aldrich, St. Louis, Mo.) and supplemented with the following additions from Life Technologies: 1% (v/v) sodium pyruvate, 1% (v/v) non-essential amino acids, 100 U/mL penicillin, 100 μg/mL streptomycin, 2 mM L-glutamine and 0.28 μg/mL fungizone. The cells were then incubated at 37° C. in a humidified atmosphere of 5% CO2 and 95% air.
(§3) The effect of anti-cancer agents on cellular proliferation was examined using the MTT [3-(4,5-dimethylthiazol-2-yl)-2,5-diphenyl tetrazolium] method. In this assay, 3×10^3 cells/well were seeded in 96-well plates in 100 μL of media. The next day, serially diluted drugs of interest were added. […] The cells were incubated at 37° C. in a humidified atmosphere containing 5% CO2 and 95% air for 72 h. After this incubation, 10 μL of MIT (5 mg/mL) was added to each well and the incubation continued at 37° C. for 2 h. After solubilization of the cells with 100 μL of 10% SDS-50% isobutanol in 10 mM HCl, the plates were read at 570 nm using a scanning multi-well spectrophotometer (Victor™ Multilabel Counter plate reader; Perkin Elmer, Australia). Results were analyzed to calculate the concentration of chelator or complex necessary to reduce the absorbance to 50% (IC50) of the control.
For orientation: Formazan colour is commonly taken as a measure of viable cells.

For data set [5], the system named is KBV1 cells. Description: Lysosomal integrity, acridine orange flow cytometry, KBV1 cells. It is filed as cell-based, Human. Here is the method: Lysotracker® red (Life Technologies) and acridine orange (Sigma-Aldrich) are dyes showing high specificity for lysosomes and were used to determine lysosomal membrane permeability (LMP). The Lysotracker® red was visually assessed by fluorescence microscopy utilizing a Zeiss Axio Observer.Z1 Fluorescence Microscope equipped with an AxioCam camera (Zeiss, Oberkochen, Germany) and acridine orange was quantified by flow cytometry (see below).
Briefly, cells were incubated with Lysotracker® red (50 nM) for 15 min/37° C. or acridine orange (20 nM) for 15 min/37° C., washed on ice 3 times with ice-cold PBS and then incubated with Cu[Dp44mT] (25 μM) for 30 min/37° C. or Dp44mT alone (25 μM) for 30 min or 24 h/37° C.
(§4) The dyes, Rh123 and acridine orange were detected with the FACS Canto flow cytometer (BD Biosciences) and 10,000 events were acquired for every sample. Data analysis was performed using FlowJo software, version 7.5.5 (Tree Star Inc., Ashland, OR).
For orientation: Flow cytometry measures light scatter and fluorescence of single cells or particles in a stream.

The test system of data set [6] is non-Pgp expressing KB31 cells. Description: Rhodamine 123 accumulation assay, KB31 cells. Format: cell-based, Human. To be noted: increased concentrations. On the procedure: Cells were then harvested and resuspended in ice-cold PBS and kept on ice until flow cytometric analysis (see below).
as §4

In data set [7] the test system is non-Pgp expressing 2008 cells. Description: MTT proliferation assay, 2008 cells. It is filed as cell-based. To be noted: 2008 cells, Val 1 μM, Ela 0.1 μM. On the procedure:
as §2, §3

The subject of data set [8] is non-Pgp expressing KB31 cells. Description: MTT proliferation assay, KB31 cells. It is filed as cell-based, Human. To be noted: Val 1 μM, Ela 0.1 μM, 72 h.
A short description of data set [9]: Redox studies: oxidation of H2DCF, cell-free. To be noted: acetate buffer pH 5, cysteine, H2O2, over 12 min. Here is the method:
These studies were conducted in an acetate buffer (150 mM; pH 5) containing cysteine (100 μM) to mimic lysosomal conditions. In these experiments, hydrogen peroxide (100 μM) was added to initiate ROS generation.

Data set [10] concerns the target Pgp (Homo sapiens, UniProt P08183). Description: Pgp-ATPase activity assay (Pgp-Glo). To be noted: 40 min. On the procedure:
The ATPase activities of Pgp were determined using Pgp-enriched membranes and a luminescent ATP detection kit (Pgp-Glo Assay Kit, Promega, USA) according to the manufacturer's instructions. Briefly, Pgp membranes (0.5 mg/mL) and Mg(II)-ATP (5 mM) were incubated in the absence or presence of sodium orthovanadate (100 μM) for 40 min/37° C. and ATP detected as a luciferase-generated luminescent signal. Basal Pgp-ATPase activities were determined as the difference between the ATP hydrolysis in the presence or absence of sodium orthovanadate. Verapamil-stimulated Pgp-ATPase activity was measured in the presence of the Pgp control substrate, verapamil (200 μM).
Test substrates (Dp44mT and Bp4eT) of interest were dissolved in dimethyl sulfoxide. The final concentration of DMSO in the assay medium was less than 1%.
The Pgp Glo™ ATPase assay (Promega, Madison, Wis.) was used to assess if Dp44mT and Bp4eT are substrates of Pgp. The ATPase assay measures the Pgp-mediated ATPase activity of Pgp by quantitating ATP consumption in the presence of the compounds of interest after incubation with purified membrane proteins containing high levels of Pgp. […] The basal ATPase activity of Pgp is compared to the ATPase activity stimulated or inhibited by the compounds of interest.

Pgp, sequence (P08183 whole entry): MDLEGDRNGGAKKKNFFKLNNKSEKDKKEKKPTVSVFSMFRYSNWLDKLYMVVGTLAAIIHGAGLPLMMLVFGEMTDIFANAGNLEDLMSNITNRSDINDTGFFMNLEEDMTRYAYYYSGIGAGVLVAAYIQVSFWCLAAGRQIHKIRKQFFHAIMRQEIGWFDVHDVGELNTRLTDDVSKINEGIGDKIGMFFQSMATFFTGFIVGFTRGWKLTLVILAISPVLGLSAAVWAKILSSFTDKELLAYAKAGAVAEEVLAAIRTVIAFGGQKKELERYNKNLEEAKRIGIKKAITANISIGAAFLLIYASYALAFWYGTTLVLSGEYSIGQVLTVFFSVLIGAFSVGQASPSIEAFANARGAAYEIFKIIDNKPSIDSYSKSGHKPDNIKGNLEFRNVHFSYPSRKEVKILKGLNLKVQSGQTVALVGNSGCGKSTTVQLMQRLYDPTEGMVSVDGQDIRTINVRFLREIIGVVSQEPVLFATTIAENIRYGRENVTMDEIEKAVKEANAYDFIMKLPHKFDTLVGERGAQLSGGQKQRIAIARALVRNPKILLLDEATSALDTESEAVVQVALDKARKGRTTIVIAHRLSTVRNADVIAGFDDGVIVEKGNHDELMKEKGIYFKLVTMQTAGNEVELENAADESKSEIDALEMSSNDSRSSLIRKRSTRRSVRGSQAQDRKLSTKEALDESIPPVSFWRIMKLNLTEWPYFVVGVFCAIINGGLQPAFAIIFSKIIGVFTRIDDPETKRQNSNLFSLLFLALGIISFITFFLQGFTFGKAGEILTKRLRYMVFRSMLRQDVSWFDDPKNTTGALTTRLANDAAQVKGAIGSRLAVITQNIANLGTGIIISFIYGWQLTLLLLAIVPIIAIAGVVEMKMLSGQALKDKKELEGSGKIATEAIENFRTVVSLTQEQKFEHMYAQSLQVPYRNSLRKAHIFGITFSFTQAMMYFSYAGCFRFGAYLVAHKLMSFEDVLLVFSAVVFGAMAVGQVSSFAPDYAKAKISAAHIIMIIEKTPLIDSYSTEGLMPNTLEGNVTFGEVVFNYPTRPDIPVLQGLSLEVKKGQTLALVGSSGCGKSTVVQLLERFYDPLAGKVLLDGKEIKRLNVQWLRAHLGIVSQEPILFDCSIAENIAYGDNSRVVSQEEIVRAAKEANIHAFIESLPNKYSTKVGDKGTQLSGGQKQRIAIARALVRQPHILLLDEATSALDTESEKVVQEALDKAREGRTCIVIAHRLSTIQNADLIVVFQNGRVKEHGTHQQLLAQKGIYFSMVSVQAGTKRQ

As to `CN(C)C(=S)NN=C(c1ccccn1)c1ccccn1` [Dp44mT, di-2-pyridylketone 4,4-dimethyl-3-thiosemicarbazone], the “accumulation after pre-treatment with lysosomotropic agents” value was “did not significantly affect” in data set [1] and “significantly (p<0.001) decreased” in data set [2]. Also, the “efflux in KBV1 cells in comparison to KB31 cells” value in data set [3] (1-10 min incubation) is given as “significantly (p<0.001) higher efflux”. Also, the “effect of Val and Ela on efflux” value in [3] (KBV1 cells, Val 1 μM or Ela 0.1 μM) is on record as “significantly (p<0.01-0.001) suppressed efflux”. The “change of cytotoxicity in presence of Pgp inhibitors Val or Ela” value was “significantly (p<0.001) decreased sensitivity” in data set [4] (2008/P200A cells, Val 1 μM, Ela 0.1 μM); “no significant (p>0.05) change” in data set [7]; “did not significantly alter their cytotoxicity” in [8]. Moreover, the “sensitivity of 2008/P200A cells compared to 2008 cells” value in data set [4] (72 h) was “significantly (p<0.001) increased sensitivity”. Also, the “lysosomal integrity (acridine orange)” value in data set [5] (30 min incubation) is recorded as “did not compromise lysosomal integrity”; in [5] (KBV1 cells, 25 μM, 24 h), “decreased lysosomal integrity”. For the same compound, the “lysosomal damage in presence of Val” value in data set [5] (KBV1 cells, 24 h, with Pgp inhibitor Val) is “significantly (p<0.01) reduced lysosomal damage”. Further, in [6], the “effect on Rh123 accumulation” value is “did not significantly affect Rh123 accumulation”. Besides, the “redox activity (H2DCF oxidation)” value in data set [9] was “no activity”. Besides, the “stimulation of basal catalytic (ATPase) activity of Pgp” value in [10] is reported as 3- to 8 fold.

These data come from US20150306081A1, “Chemotherapy for Drug-Resistant Cancer Cells” (THE UNIVERSITY OF SYDNEY, priority 2012, published 2015).
